Test results: paper PMC8812569, “A widely distributed phosphate-insensitive phosphatase presents a route for rapid organophosphorus remineralization in the biosphere” (Proceedings of the National Academy of Sciences of the …, 2022)

Columns and labels:
Test in all cases: pNP release at […] nm in whole cells of complemented P. putida phoX mutant
PhoA^Ec = molecular target: T1, PhoA^Ec (Escherichia coli, UniProt P00634); assay type: cell-based, Pseudomonas putida; conditions: 10 mM pNPP; growth medium or Tris-HCl pH 9.4; 28 °C
T1 construct: full gene expressed in P. putida BIRD-1 phoX mutant; whole-cell assay
T1 sequence (P00634 22-471): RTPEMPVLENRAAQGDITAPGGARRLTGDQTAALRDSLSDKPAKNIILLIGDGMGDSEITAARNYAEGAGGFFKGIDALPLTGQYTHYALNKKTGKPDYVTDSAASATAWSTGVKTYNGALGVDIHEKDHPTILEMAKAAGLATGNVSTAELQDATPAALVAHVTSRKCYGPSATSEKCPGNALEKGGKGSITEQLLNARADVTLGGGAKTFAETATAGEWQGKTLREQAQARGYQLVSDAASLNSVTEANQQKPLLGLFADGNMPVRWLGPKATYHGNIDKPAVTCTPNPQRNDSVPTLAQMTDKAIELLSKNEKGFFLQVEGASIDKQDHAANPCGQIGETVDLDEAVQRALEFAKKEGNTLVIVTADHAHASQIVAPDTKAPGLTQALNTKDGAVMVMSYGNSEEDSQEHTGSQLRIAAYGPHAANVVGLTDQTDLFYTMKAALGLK

PhoA1^Fj = molecular target: T2, PhoA1^Fj (Flavobacterium johnsoniae, UniProt A5FEV6); assay type: cell-based, Pseudomonas putida; conditions: 10 mM pNPP; growth medium or Tris-HCl pH 9.4; 28 °C
T2 construct: gene Fjoh_3249; full gene expressed from pBBR1MCS-km in P. putida BIRD-1 phoX mutant; whole-cell assay
T2 sequence (A5FEV6 19-607): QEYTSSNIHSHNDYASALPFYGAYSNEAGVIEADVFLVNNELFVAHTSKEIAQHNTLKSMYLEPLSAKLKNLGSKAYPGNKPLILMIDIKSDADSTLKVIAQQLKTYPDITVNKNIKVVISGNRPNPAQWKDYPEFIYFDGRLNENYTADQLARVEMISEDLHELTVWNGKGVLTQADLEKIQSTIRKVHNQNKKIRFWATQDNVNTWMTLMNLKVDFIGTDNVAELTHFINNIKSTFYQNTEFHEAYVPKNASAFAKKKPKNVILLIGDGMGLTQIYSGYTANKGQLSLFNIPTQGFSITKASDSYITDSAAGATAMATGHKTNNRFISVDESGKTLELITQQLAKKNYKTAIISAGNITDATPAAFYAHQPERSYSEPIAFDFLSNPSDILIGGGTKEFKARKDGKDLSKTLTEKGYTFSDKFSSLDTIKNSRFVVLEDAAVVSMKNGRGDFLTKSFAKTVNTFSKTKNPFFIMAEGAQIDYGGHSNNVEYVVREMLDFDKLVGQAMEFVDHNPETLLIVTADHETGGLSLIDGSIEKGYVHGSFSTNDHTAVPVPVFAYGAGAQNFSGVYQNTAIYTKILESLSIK

PafA^Cp1 = molecular target: T3, PafA^Cp1 (Chitinophaga pinensis, UniProt A0A979GMC5); assay type: cell-based; conditions: 10 mM pNPP
T3 construct: gene Cpin_0724; synthesized gene expressed in P. putida BIRD-1 phoX mutant; whole-cell assay
T3 sequence (A0A979GMC5 26-545): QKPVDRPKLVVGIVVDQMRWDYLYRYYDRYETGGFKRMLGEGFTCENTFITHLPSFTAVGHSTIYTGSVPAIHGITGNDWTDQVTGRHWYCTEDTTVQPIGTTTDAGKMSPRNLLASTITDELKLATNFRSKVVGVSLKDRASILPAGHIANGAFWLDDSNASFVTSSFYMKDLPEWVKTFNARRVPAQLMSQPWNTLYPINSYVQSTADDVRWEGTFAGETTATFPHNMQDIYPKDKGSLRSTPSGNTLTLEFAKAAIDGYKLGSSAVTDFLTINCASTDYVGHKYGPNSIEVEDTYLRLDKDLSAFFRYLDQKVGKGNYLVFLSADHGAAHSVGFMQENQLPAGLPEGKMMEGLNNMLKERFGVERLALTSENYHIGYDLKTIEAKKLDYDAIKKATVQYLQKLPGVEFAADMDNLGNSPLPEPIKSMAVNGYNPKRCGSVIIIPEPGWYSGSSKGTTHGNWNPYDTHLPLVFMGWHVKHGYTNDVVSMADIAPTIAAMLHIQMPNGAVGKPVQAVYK

PafA^Cp2 = molecular target: T4, PafA^Cp2 (Chitinophaga pinensis, UniProt A0A979G1Z1); assay type: cell-based; conditions: 10 mM pNPP
T4 construct: gene Cpin_1665; synthesized gene expressed in P. putida BIRD-1 phoX mutant; whole-cell assay
T4 sequence (A0A979G1Z1 29-568): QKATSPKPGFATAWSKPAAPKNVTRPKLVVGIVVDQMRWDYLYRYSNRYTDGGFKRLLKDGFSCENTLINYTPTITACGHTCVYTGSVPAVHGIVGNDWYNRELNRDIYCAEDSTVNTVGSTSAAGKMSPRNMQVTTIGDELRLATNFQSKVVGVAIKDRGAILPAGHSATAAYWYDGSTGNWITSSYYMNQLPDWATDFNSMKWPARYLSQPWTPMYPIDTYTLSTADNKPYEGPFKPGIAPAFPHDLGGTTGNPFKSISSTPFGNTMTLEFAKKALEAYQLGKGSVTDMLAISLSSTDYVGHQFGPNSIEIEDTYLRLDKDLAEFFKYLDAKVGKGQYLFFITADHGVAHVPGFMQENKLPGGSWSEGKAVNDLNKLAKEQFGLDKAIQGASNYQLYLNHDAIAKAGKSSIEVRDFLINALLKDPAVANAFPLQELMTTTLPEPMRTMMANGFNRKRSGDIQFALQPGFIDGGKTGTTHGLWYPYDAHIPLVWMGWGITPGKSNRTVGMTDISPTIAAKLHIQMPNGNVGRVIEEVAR

PhoA2^Fj = molecular target: T5, PhoA2^Fj (Flavobacterium johnsoniae, UniProt A5FF14); assay type: cell-based; conditions: 10 mM pNPP; growth medium or Tris-HCl pH 9.4; 28 °C
T5 construct: gene Fjoh_3187; full gene expressed from pBBR1MCS-km in P. putida BIRD-1 phoX mutant; whole-cell assay
T5 sequence (A5FF14 27-468): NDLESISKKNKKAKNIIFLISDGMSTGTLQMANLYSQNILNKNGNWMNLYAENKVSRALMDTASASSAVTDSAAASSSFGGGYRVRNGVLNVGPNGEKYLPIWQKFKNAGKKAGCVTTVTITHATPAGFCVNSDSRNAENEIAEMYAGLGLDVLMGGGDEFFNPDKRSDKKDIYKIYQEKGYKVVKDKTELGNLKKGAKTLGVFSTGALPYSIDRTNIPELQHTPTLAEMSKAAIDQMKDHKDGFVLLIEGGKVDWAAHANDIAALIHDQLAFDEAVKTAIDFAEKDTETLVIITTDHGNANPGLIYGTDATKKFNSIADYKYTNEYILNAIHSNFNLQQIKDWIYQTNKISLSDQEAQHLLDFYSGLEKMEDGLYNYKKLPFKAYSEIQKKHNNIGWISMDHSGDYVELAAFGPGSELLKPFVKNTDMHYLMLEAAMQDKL

PafA^Fj = molecular target: T6, PafA^Fj (Flavobacterium johnsoniae, UniProt A5FP14); assay type: cell-based; conditions: 10 mM pNPP; growth medium or Tris-HCl pH 9.4; 28 °C
T6 construct: gene Fjoh_0023; full gene expressed from pBBR1MCS-km in P. putida BIRD-1 phoX mutant; whole-cell assay
T6 sequence (A5FP14 19-539): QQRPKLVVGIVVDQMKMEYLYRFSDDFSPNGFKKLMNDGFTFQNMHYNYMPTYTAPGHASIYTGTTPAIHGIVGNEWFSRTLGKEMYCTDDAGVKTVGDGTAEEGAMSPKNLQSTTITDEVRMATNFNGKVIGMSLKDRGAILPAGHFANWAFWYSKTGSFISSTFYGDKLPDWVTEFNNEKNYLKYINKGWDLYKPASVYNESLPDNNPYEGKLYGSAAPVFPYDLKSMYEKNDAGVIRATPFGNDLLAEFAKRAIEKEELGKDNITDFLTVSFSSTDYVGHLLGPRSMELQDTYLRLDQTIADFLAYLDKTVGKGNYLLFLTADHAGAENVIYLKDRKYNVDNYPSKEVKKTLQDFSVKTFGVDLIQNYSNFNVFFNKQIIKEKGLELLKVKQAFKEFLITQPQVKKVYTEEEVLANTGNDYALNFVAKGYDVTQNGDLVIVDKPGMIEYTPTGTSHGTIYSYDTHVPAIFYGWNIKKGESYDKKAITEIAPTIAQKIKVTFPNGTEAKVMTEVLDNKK

O=[N+]([O-])c1ccc(OP(=O)(O)O)cc1 [para-nitrophenyl phosphate]
PME activity (PhoA^Ec): Plasmid copies of either phoX^BIRD (+pBXphoX^BIRD) or the E. coli phoA (+pBXphoA^Ec) restored PME activity
PME activity (PhoA1^Fj): cells producing PhoA1^Fj (+pBXphoA1^Fj), PhoA2^Fj (+pBXphoA2^Fj), or PafA^Fj (+pBXpafA^Fj) also restored PME activity
PME activity (PafA^Cp1): demonstrating both are functional Pi-insensitive PMEs
PME activity (PafA^Cp2): demonstrating both are functional Pi-insensitive PMEs
PME activity (PhoA2^Fj): cells producing PhoA1^Fj (+pBXphoA1^Fj), PhoA2^Fj (+pBXphoA2^Fj), or PafA^Fj (+pBXpafA^Fj) also restored PME activity
PME activity (PafA^Fj): or PafA^Fj (+pBXpafA^Fj) also restored PME activity, confirming their function as PMEs
